Experimental data as given in patent US10196374B2 (AstraZeneca AB, priority 2014, dated 2019).

How the values were obtained:
Assay type in all cases: cell-based
[1] = target: T1, human glucocorticoid receptor (GR) (Homo sapiens (Human), UniProt P04150); assay: GRE Antagonist Assay (ChagoK1 18:7:2 s4/GRE reporter cells pre-stimulated with dexamethasone); conditions: for Emax at 1 µM: ChaGo-K-1, relative to full antagonist effect of Mifepristone (RU486), read-out: TA antagonist Observed max Effect at 1 μM (%); for TA antagonist pIC50: transactivation in antagonist mode, pre-stimulated with dexamethasone 70 nM
T1 sequence (P04150 whole entry): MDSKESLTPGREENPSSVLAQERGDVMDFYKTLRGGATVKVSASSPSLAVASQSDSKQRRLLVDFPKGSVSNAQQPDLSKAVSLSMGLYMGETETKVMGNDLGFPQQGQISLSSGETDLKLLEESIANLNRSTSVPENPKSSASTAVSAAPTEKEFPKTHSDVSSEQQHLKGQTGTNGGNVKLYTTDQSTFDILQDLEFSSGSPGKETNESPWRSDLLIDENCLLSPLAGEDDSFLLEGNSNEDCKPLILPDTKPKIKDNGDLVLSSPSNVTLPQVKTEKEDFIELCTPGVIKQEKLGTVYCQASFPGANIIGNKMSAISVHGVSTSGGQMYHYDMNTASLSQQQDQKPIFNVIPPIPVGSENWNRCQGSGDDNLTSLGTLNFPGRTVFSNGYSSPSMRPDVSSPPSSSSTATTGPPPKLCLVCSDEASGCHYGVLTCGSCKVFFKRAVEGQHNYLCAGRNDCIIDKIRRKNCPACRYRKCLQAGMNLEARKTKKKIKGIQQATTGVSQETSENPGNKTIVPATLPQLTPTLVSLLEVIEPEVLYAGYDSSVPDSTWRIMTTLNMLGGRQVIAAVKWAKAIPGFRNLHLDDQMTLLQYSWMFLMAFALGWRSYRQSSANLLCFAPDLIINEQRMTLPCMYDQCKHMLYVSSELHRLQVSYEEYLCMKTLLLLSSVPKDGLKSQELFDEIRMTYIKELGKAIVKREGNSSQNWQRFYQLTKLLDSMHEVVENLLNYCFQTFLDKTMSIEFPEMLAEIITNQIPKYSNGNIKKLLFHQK
Text: GRE Antagonist Assay A reporter cell line (ChagoK1 18:7:2 s4/GRE) was established by stable transfection of the human bronchogenic carcinoma celline, ChaGo K1 (ATCC: HTB 168) with a MMTV-GRE-LacZ reporter construct. The generated cell line allows for identification of compounds showing antagonist activity at the human glucocorticoid receptor (GR) via reduction of LacZ gene expression. Dexamethasone-activated GR binds to the Glucocorticoid Response Element (GRE) in the promoter of the LacZ gene and transcription is initiated. Antagonistic properties of compounds are assessed as beta-galactosidase intensity reduction from pre-stimulation with dexamethasone through a colour reaction (change in absorbance). Cryo-preserved ChagoK1 18:7:2 s4/GRE cells were suspended in RPMI medium with 10% FBS, 1% NEAA and 1% sodium pyruvate, and seeded as 50000 cells/200 ul/well in 96-well plates and cultured at 37° C. with 5% CO2 and 95% humidity for 24 hr. […] The reaction was then terminated by addition of 100 μl stop solution (300 mM glycine, 15 mM EDTA, pH 11.3, adjusted with NaOH). The plates were measured at 420 nm for absorbance in a SpectraMax reader (Molecular Device). […]) Where A=min Y, B=max Y, C=log IC50 and D=Slope factor

[2] = target: T1, human glucocorticoid receptor (GR); assay: GRE Agonist Assay (ChagoK1 18:7:2 s4/GRE MMTV-GRE-LacZ reporter cell line); conditions: for Emax at 1 µM: ChaGo-K-1, relative to full agonist effect of dexamethasone, read-out: TA agonist Observed max Effect at 1 μM (%); for TA agonist pEC50: transactivation in agonist mode, ChagoK1 GRE-LacZ reporter cells, 24 hours
Text: GRE Agonist Assay A reporter cell line (ChagoK1 18:7:2 s4/GRE) was established by stable transfection of the human bronchogenic carcinoma cell line, ChaGo K1 (ATCC: HTB 168) with a MMTV-GRE-LacZ reporter construct. The generated cell line allows for identification of compounds showing agonist activity at the human glucocorticoid receptor (GR) via induction of LacZ gene expression. Ligand-activated GR binds to the Glucocorticoid Response Element (GRE) in the promoter of the LacZ gene and transcription is initiated. The resulting beta-galactosidase activity is measured through a colour reaction (change in absorbance). Cryo-preserved ChagoK1 18:7:2 s4/GRE cells were suspended in RPMI medium with 10% FBS, 1% NEAA and 1% sodium pyruvate, and seeded as 50000 cells/200 ul/well in 96-well plates and cultured at 37° C. with 5% CO2 and 95% humidity for 24 hours. 1 μl compound was added at different concentrations to the cells and incubated for another 24 hours. […] The reaction was then terminated by addition of 100 μl stop solution (300 mM glycine, 15 mM EDTA, pH 11.3, adjusted with NaOH). […]) Where A=min Y, B=max Y, C=log EC50 and D=Slope factor

[3] = test system: tyrosine aminotransferase (TAT) mRNA expression in human hepatocytes; assay: Tyrosine Aminotransferase (TAT) mRNA Expression In Vitro Assay in human primary hepatocytes; conditions: 18 hr, fold change vs DMSO control
Protocol: Tyrosine Aminotransferase (“TAT”) mRNA Expression In Vitro Assay
The impact of test compounds on hyperglycemic events were assessed by looking at changes in mRNA expression of the gene encoding tyrosine aminotransferase (TAT), which is under direct regulation of the glucocorticoid receptor in human hepatocytes.
Human cryopreserved primary hepatocytes (BioreclamationIVT, M00995-P lot EPB) were plated to 24-well collagen I-coated plates (Becton Dickinson, 354408). Cells were allowed to attach for 4 hr before being challenged with test compounds overnight (18 hr). Cells were harvested and total RNA isolated using RNeasy Plus Mini Kit (Qiagen, 74136) followed by cDNA synthesis using High Capacity cDNA reverse transcription kit (Applied Biosystems, 4368813). Real-time RT PCR was performed on an Applied Biosystems 7500 PCR cycler, using Taqman primers for TAT (Life technologies, Hs00356930_m1) and the reference gene hypoxanthine phosphoribosyltransferase 1 (Life technologies, Hs99999909_m1).
Human cryopreserved primary hepatocytes were transferred in to pre-warmed (37° C.) plating medium (BioreclamationIVT, Z990003) and diluted to 0.7×10^6 viable cells/mL. 500 µL of the cell suspension was plated to each well of a collagen I coated 24-well plate and cells were allowed to sediment and attach at 37° C. for 4 hr. After incubation, the media was gently discarded and exchanged for insulin, glucose, glutamine, pyruvate free media (BioreclamationIVT, S00304), containing compounds of interest, prednisolone at 1 μM, dissolved in DMSO (final DMSO concentration 0.01%), or DMSO alone as control. The plates were then incubated at 37° C. for an additional 18 hr. Media was discarded, and total RNA isolation (Qiagen) and cDNA synthesis (Applied Biosystems) performed according to the manufactures protocol. Real-time RT PCR was carried out using TaqMan reagents (Life technologies) on the 7500 PCR cycler, and Ct-values for TAT gene expression was normalised to the control gene and expressed as fold change compared to DMSO control using the 2^−ΔΔCt method.

[4] = test system: release of TNFα from whole blood stimulated with LPS; assay: In Vitro Human Whole Blood: inhibition of TNFα release from whole blood stimulated with LPS; conditions: LPS 30 μg/mL, 18 hr, read-out: TNFα pIC50 (converted)
Protocol: In Vitro Human Whole Blood
Venous blood from human donors was collected and anti-coagulated with sodium heparin and transferred to a sterile polystyrene round bottomed plate (Corning) at 190 μL per well.
Control wells received 1 μL DMSO only and the final DMSO concentration in all wells was 0.5%.
10 μL was added to each well to give a final LPS concentration of 30 μg/mL. Unstimulated controls received PBS only at 10 μL/well. The samples were, again, gently mixed, and the plates incubated overnight for 18 hr. Following incubation, the blood was centrifuged at 700×g for 5 min, and the plasma removed and transferred to freeze at −20° C. before assay for TNFα release.
TNFα protein levels were determined using an AlphaLISA hTNFa kit (Perkin Elmer) according to the manufacturer's instructions. Briefly, the samples were allowed to return to room temperature and centrifuged at 1500×g for 5 min. Samples were diluted 1/5 (5 μL sample in 20 μL AlphaLISA buffer). At the same time, a standard curve of TNFα was prepared by serial 1/3 dilutions from a stock solution (5000-2 pg/mL). 5 μL sample/standard curve were transferred to a 384-well Optiplate™, and to this was added 20 μL anti-humanTNFa acceptor beads/biotinylated antibody mix. The plate was incubated at room temperature for 60 min. After this incubation, 25 μL streptavidin donor beads were added, and the plate was incubated for a further 60 min in the dark at room temperature. […] TNFα in the samples was determined by extrapolation from the standard curve and expressed as pg/mL.
Percent inhibition was plotted against concentration, and a curve graphed using a 4-parameter curve fit (Xlfit 4.1) to determine the pIC50.

Compound | Emax at 1 µM [1] [%] | TA antagonist pIC50 [1] | Emax at 1 µM [2] [%] | TA agonist pEC50 [2] | IC50 [4] [nM] | Fold Change Tyrosine Aminotransferase Gene Expression Relative to Control (1 μM) [3]
CC(C)[C@H](NC(=O)C(C)(F)F)[C@H](Oc1ccc2c(cnn2-c2ccc(=O)n(C)c2)c1)c1cc(F)cc(F)c1 [Example 3, N-[(1R,2S)-1-(3,5-difluorophenyl)-3-methyl-1-{[1-(1-methyl-6-oxo-1,6-dihydropyridin-3-yl)-1H-indazol-5-yl]oxy}butan-2-yl]-2,2-difluoropropanamide] | 53 | 7.6 | 44 | 8.6 | 100 | 1.5 (1.4-1.55, n = 2)
CC(C)[C@H](NC(=O)C(F)(F)F)[C@H](Oc1ccc2c(cnn2-c2ccc(=O)n(C)c2)c1)c1cccc(Cl)c1 [Example 6, N-[(1R,2S)-1-(3-chlorophenyl)-3-methyl-1-{[1-(1-methyl-6-oxo-1,6-dihydropyridin-3-yl)-1H-indazol-5-yl]oxy}butan-2-yl]-2,2,2-trifluoroacetamide] | 67 | 7.3 | 24 | 8.6 | 398 | 0.9 (n = 1)
CC(C)[C@H](NC(=O)C(C)(F)F)[C@H](Oc1ccc2c(cnn2-c2ccc(=O)n(C)c2)c1)c1cc(F)cc(Cl)c1 [Example 19, N-[(1R,2S)-1-(3-chloro-5-fluorophenyl)-3-methyl-1-{[1-(1-methyl-6-oxo-1,6-dihydropyridin-3-yl)-1H-indazol-5-yl]oxy}butan-2-yl]-2,2-difluoropropanamide] | 58 | 7.6 | 38 | 8.5 |  | 
CC(C)[C@H](NC(=O)C(F)(F)F)[C@H](Oc1cc2cnn(-c3ccc(=O)n(C)c3)c2cc1Cl)c1ccccc1 [Example 22, N-[(1R,2S)-1-{[6-chloro-1-(1-methyl-6-oxo-1,6-dihydropyridin-3-yl)-1H-indazol-5-yl]oxy}-3-methyl-1-phenylbutan-2-yl]-2,2,2-trifluoroacetamide] | 56 | 7.3 | 37 | 8.5 |  | 
C[C@]12C=CC(=O)C=C1CC[C@@H]1[C@@H]2[C@@H](O)C[C@@]2(C)[C@H]1CC[C@]2(O)C(=O)CO [Prednisolone, prednisolone, reference compound] |  |  |  |  | 251 | 2.8 (1.3-5.3, n = 10)

Continued, in another order:

Emax at 1 µM [1] [%] | TA antagonist pIC50 [1] | Emax at 1 µM [2] [%] | TA agonist pEC50 [2] | IC50 [4] [nM] | Compound | Fold Change Tyrosine Aminotransferase Gene Expression Relative to Control (1 μM) [3]
56 | 6.8 | 36 | 8.0 | 631 | CC(C)[C@H](NC(=O)C(C)(F)F)[C@H](Oc1ccc2c(cnn2-c2ccc(=O)n(C)c2)c1)c1ccccc1 [Example 1, 2,2-difluoro-N-[(1R,2S)-3-methyl-1-{[1-(1-methyl-6-oxo-1,6-dihydropyridin-3-yl)-1H-indazol-5-yl]oxy}-1-phenylbutan-2-yl]propanamide] | 1.0 (0.8-1.4, n = 8)
66 | 7.3 | 43 | 8.3 |  | CC(C)[C@H](NC(=O)C(C)(F)F)[C@H](Oc1ccc2c(cnn2-c2ccc(=O)n(C)c2)c1)c1ccc(Cl)c(F)c1 [Example 20, N-[(1R,2S)-1-(4-chloro-3-fluorophenyl)-3-methyl-1-{[1-(1-methyl-6-oxo-1,6-dihydropyridin-3-yl)-1H-indazol-5-yl]oxy}butan-2-yl]-2,2-difluoropropanamide] | 
48 | 7.3 | 42 | 8.3 |  | CC(C)[C@H](NC(=O)C(C)(F)F)[C@H](Oc1cc2cnn(-c3ccc(=O)n(C)c3)c2cc1Cl)c1ccccc1 [Example 21, N-[(1R,2S)-1-{[6-chloro-1-(1-methyl-6-oxo-1,6-dihydropyridin-3-yl)-1H-indazol-5-yl]oxy}-3-methyl-1-phenylbutan-2-yl]-2,2-difluoropropanamide] | 
70 | 6.4 | 14 | 7.6 |  | CCn1cc(-n2ncc3cc(O[C@H](c4ccccc4)[C@@H](NC(=O)C(C)(F)F)C(C)C)ccc32)ccc1=O [Example 23, N-[(1R,2S)-1-{[1-(1-ethyl-6-oxo-1,6-dihydropyridin-3-yl)-1H-indazol-5-yl]oxy}-3-methyl-1-phenylbutan-2-yl]-2,2-difluoropropanamide] | 
